Results as given in ChEMBL document CHEMBL1148622, “Structural insight into the stereoselective inhibition of MMP-8 by enantiomeric sulfonamide phosphonates” (J Med Chem, 2006).

What was measured:
[1] = target: 72 kDa type IV collagenase (Homo sapiens, UniProt P08253); experiment: Inhibitory activity against MMP2
Stromelysin-1 [2] = target: T1, Stromelysin-1 (Homo sapiens, UniProt P08254); experiment: Inhibitory activity against MMP3 at 0.1 mM
Target sequence in this assay (P08254 100-477 limits assumed): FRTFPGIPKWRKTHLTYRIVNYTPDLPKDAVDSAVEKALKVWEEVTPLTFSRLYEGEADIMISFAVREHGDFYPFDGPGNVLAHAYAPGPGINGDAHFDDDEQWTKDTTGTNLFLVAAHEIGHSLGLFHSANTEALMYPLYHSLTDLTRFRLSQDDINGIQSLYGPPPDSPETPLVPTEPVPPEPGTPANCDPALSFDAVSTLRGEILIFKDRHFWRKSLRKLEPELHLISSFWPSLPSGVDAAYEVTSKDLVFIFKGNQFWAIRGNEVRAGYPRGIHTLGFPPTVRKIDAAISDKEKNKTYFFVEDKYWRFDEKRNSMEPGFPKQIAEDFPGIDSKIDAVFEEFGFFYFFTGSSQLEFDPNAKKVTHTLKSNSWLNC

Stromelysin-1 [3] = target: T1, Stromelysin-1; experiment: Inhibitory activity against MMP3
Target sequence in this assay (P08254 whole entry): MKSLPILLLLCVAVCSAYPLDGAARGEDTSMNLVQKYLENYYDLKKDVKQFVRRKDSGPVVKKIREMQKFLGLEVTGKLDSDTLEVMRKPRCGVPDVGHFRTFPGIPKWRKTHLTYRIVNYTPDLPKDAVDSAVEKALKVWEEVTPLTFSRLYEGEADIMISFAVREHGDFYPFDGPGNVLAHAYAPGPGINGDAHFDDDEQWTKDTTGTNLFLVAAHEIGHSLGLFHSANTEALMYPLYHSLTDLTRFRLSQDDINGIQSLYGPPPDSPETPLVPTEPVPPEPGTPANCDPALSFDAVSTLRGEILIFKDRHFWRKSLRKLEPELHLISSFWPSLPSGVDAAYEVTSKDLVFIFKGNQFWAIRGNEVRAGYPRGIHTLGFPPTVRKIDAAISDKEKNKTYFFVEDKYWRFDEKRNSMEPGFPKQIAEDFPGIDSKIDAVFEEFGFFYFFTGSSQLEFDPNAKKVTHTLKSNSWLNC

Chain of 72 kDa type IV collagenase (P08253 whole entry): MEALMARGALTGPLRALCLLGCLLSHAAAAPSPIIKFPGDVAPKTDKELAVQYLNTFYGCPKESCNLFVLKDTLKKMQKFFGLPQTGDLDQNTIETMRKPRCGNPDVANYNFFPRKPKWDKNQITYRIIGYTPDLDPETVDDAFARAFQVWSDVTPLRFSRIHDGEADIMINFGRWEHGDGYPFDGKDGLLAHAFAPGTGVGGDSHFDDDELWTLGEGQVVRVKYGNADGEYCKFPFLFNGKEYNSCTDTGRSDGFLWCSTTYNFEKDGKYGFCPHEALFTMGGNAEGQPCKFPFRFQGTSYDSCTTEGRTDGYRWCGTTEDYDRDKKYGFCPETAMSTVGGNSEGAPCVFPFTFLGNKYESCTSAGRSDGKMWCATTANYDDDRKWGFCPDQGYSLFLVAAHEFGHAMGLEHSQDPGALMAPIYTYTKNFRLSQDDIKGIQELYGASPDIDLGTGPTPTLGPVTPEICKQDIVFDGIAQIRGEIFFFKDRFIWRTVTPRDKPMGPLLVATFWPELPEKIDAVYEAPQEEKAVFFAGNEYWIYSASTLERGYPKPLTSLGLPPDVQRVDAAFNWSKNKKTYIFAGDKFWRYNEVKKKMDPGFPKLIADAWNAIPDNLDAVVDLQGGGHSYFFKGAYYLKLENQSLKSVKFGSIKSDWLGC

COc1ccc(-c2ccc(S(=O)(=O)N[C@H](C(C)C)P(=O)(O)O)cc2)cc1
Ki [1]: 1200 nM
inhibition (Stromelysin-1 [2]): < 15%

CC(C)[C@@H](NS(=O)(=O)c1ccc(-c2ccc(Br)cc2)cc1)C(=O)NO
IC50 (Stromelysin-1 [3]): 8 nM
IC50 [1]: 3 nM

COc1ccc(-c2ccc(S(=O)(=O)N[C@@H](C(C)C)P(=O)(O)O)cc2)cc1
Ki (Stromelysin-1 [3]): 40 nM
Ki [1]: 5 nM
